Target: T1, human Edg-1 receptor (Homo sapiens, UniProt P21453)
T1 construct: expressed in transfected cells; membrane preparation
Assay: GTP-γ-S assay using human Edg-1 receptors (scintillation proximity assay, membrane preparation from CHO Flp-In cell line)
Type: biochemical
Conditions: example compound at 10 μM; relative to 10 μM S1P; GTP-γ-S SPA, human Edg-1 membranes
Summary of the method: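 Scintillation proximity GTP-γ-S binding assay measuring receptor activation. Membranes prepared from a CHO Flp-In line stably overexpressing N-terminally FLAG-tagged human Edg-1.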

T1 sequence (P21453 whole entry): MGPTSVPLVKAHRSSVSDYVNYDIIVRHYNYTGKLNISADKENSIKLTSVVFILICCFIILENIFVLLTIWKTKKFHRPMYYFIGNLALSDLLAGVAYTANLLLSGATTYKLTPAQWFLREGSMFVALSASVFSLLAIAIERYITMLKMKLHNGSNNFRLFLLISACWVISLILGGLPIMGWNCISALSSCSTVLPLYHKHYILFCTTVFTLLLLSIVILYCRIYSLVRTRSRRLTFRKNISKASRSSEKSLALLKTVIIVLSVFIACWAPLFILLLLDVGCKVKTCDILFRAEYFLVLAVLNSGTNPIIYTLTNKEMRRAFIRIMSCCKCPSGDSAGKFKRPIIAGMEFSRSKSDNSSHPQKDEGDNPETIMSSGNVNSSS

SMILES | % Activation (Edg-1 receptor activation in percent of the activation by 10 μM S1P)
CCOc1nc(Cc2ccc(Cl)cc2)nc2oc(-c3cccc(OCC(=O)NC(C)(C)C(=O)O)c3)nc12 [Example 271] | 53%
CCCOc1nc(Cc2ccc(Cl)cc2)nc2oc(-c3cc(C)c(OCCCN[C@@H](Cc4ccccc4)C(=O)O)c(C)c3)nc12 [Example 289] | 80%
CCCOc1nc(CN2CCOCC2)nc2oc(-c3ccc(OC)c(F)c3)nc12 [Example 88] | 101%
CCOc1nc(CC2CCC2)nc2oc(-c3cc(F)ccc3Cl)nc12 [Example 164] | 98%
CCCOc1nc(CN2CCC(F)(F)CC2)nc2oc(-c3cccc(F)c3)nc12 [Example 33] | 93%
CCOc1nc(Cc2ccc(Cl)cc2)nc2oc(-c3cc(C)c(OCC(=O)N4CCC(C(=O)O)C4)c(C)c3)nc12 (stereo not shown) [Example 239] | 86%
CCCOc1nc(CN2CCC(F)(F)CC2)nc2oc(-c3cc(F)ccc3Cl)nc12 [Example 22] | 95%
Cc1cccc(-c2nc3c(OCC4CC4)nc(CC4CCC4)nc3o2)c1 [Example 165] | 97%
CCCOc1nc(CN2CCC(F)(F)CC2)nc2oc(-c3cccc(OC)c3)nc12 [Example 36] | 127%
CCCOc1nc(Cn2cnc(C#N)n2)nc2oc(-c3cccc(F)c3)nc12 [Example 203] | 79%
CCCOc1nc(Cc2ccc(Cl)cc2)nc2oc(-c3cc(C)c(OCCCNCCO)c(C)c3)nc12 [Example 225] | 100%
CCCOc1nc(Cc2ccc(Cl)cc2)nc2oc(-c3cc(C)c(OCC(O)CNC(=O)C4(O)CC4)c(C)c3)nc12 (stereo not shown) [Example 308] | 107%
Fc1cccc(-c2nc3c(OC4CCCC4)nc(Cc4ccc(Cl)cc4)nc3o2)c1 [Example 112] | 66%
CCCOc1nc(CC2CCC2)nc2oc(-c3cccc(C)c3)nc12 [Example 162] | 108%
CCOc1nc(Cc2ccc(Cl)cc2)nc2oc(-c3cc(C)c(OCC(O)CN(C)C)c(C)c3)nc12 (stereo not shown) [Example 264] | 55%
CCCOc1nc(Cn2cnc(C(=O)OC)c2)nc2oc(-c3cccc(F)c3)nc12 [Example 56] | 44%
CCCOc1nc(CN2CCOCC2)nc2oc(-c3ccc(Cl)c(F)c3)nc12 [Example 89] | 107%
CCCOc1nc(CN2CCOCC2)nc2oc(-c3ccc(F)c(F)c3)nc12 [Example 66] | 107%
CCCOc1nc(Cc2ccc(Cl)cc2)nc2oc(-c3cccnc3)nc12 [Example 122] | 103%
CCCOc1nc(CN2CCOCC2)nc2oc(-c3cc(F)cc(F)c3)nc12 [Example 24] | 115%
CCOc1nc(Cc2ccc(Cl)cc2)nc2oc(-c3cc(C)c(OCC(=O)N[C@@H](CO)C(=O)O)c(C)c3)nc12 [Example 226] | 98%

Next, values leading:

% Activation (Edg-1 receptor activation in percent of the activation by 10 μM S1P) | SMILES
109% | CCCOc1nc(CN2CC[C@H](F)C2)nc2oc(-c3cccc(F)c3)nc12 [Example 202]
97% | CCCOc1nc(Cc2ccc(Cl)cc2)nc2oc(-c3cc(C)c(OCC(=O)NCCO)c(C)c3)nc12 [Example 244]
92% | CCCOc1nc(CN2CCC(F)(F)CC2)nc2oc(-c3cc(F)c(F)cc3Cl)nc12 [Example 87]
66% | CCOc1nc(Cc2ccc(Cl)cc2)nc2oc(-c3cc(C)c(OCC(O)CN(C(C)C)C(C)C)c(C)c3)nc12 (stereo not shown) [Example 259]
143% | CCCOc1nc(Cc2ccc(Cl)cc2)nc2oc(-c3cc(C)c(OCC(O)CNC4CCN(C)CC4)c(C)c3)nc12 (stereo not shown) [Example 313]
52% | CCCOc1nc(Cc2ccc(Cl)cc2)nc2oc(-c3cc(C(F)(F)F)cc(C(F)(F)F)c3)nc12 [Example 138]
58% | CCCOc1nc(CN2CCC(O)C2)nc2oc(-c3cccc(F)c3)nc12 (stereo not shown) [Example 181]
97% | CCCOc1nc(CN2CCCOCC2)nc2oc(-c3cc(F)ccc3Cl)nc12 [Example 23]
73% | C=CCOc1nc(Cc2ccc(Cl)cc2)nc2oc(-c3cccnc3)nc12 [Example 127]
116% | CCCOc1nc(CN2CCCOCC2)nc2oc(-c3cccc(OC)c3)nc12 [Example 37]
112% | FCCCOc1nc(Cc2ccc(Cl)cc2)nc2oc(-c3cccnc3)nc12 [Example 125]
107% | CCOc1nc(Cc2ccc(Cl)cc2)nc2oc(-c3cc(C)c(OCC(=O)N4CC(C(=O)O)C4)c(C)c3)nc12 [Example 228]
112% | CCCOc1nc(CN2CCOCC2)nc2oc(-c3ccc(Cl)c(Cl)c3)nc12 [Example 77]
71% | CCOc1nc(Cc2ccc(Cl)cc2)nc2oc(-c3cc(C)c(OCC(O)CN(CC)CC)c(C)c3)nc12 (stereo not shown) [Example 238]
73% | CCCOc1nc(Cc2ccc(C)cc2)nc2oc(-c3cccc(F)c3)nc12 [Example 136]
103% | Cc1cccc(-c2nc3c(OCCF)nc(Cc4ccc(Cl)cc4)nc3o2)c1 [Example 118]
26% | CCCOc1nc(Cc2ccc(Cl)cc2)nc2oc(-c3ccc(OC)nc3)nc12 [Example 151]

% Activation (Edg-1 receptor activation in percent of the activation by 10 μM S1P) | SMILES
100% | CCCOc1nc(CN2CCCOCC2)nc2oc(-c3ccco3)nc12 [Example 97]
104% | CCOc1nc(Cc2ccc(Cl)cc2)nc2oc(-c3cccc(OCC(=O)N4CCC[C@H]4C(=O)O)c3)nc12 [Example 270]
69% | CCCOc1nc(CN2C(=O)CN(C)C2=O)nc2oc(-c3cccc(F)c3)nc12 [Example 53]
35% | CCCOc1nc(CN2CC(C(=O)OC)C2)nc2oc(-c3cccc(F)c3)nc12 [Example 52]
92% | CCCOc1nc(CN2CCCC2COC)nc2oc(-c3cccc(F)c3)nc12 (stereo not shown) [Example 140]
128% | CCCOc1nc(Cc2ccc(Cl)cc2)nc2oc(-c3cc(C)c(OCC(=O)NCCC(=O)O)c(C)c3)nc12 [Example 241]
69% | CCCOc1nc(CC2CCOCC2)nc2oc(-c3cccc(F)c3)nc12 [Example 160]
117% | CCCOc1nc(CN2CCCOCC2)nc2oc(-c3ccc(Br)o3)nc12 [Example 99]
24% | CCCOc1nc(CN2CC(C(=O)O)C2)nc2oc(-c3cccc(F)c3)nc12 [Example 51]
302% | CCCOc1nc(Cc2ccc(Cl)cc2)nc2oc(-c3ccc(OCC(O)CN)c(Cl)c3)nc12 (stereo not shown) [Example 207]
101% | CCCOc1nc(Cc2ccccc2)nc2oc(-c3cccc(OCCO)c3)nc12 [Example 213]
33% | CCCCOc1nc(Cc2ccc(Cl)cc2)nc2oc(-c3cccs3)nc12 [Example 115]
114% | COc1cccc(-c2nc3c(OCC(C)C)nc(Cc4ccccc4)nc3o2)c1 [Example 189]
104% | CCCOc1nc(CN2CCOCC2)nc2oc(-c3c(F)ccc(F)c3F)nc12 [Example 82]
120% | CCOc1nc(Cc2ccc(Cl)cc2)nc2oc(-c3cc(C)c(OCCCS(=O)(=O)c4nnc(C5CC5)[nH]4)c(C)c3)nc12 [Example 274]
61% | Clc1ccc(Cc2nc(OC3CCCC3)c3nc(-c4ccco4)oc3n2)cc1 [Example 110]

Same assay, conditions: example compound at 10 μM; relative to 10 μM S1P; GTP-γ-S SPA, human Edg-1 membranes; read-out: % Activation (Edg-1 receptor activation in percent of the activation by 10 μM S1P)

SMILES | activation at 10 µM
CCCOc1nc(Cc2ccc(Cl)cc2)nc2oc(-c3cc(C)c(OCC(O)CNC(=O)c4ccccc4)c(C)c3)nc12 (stereo not shown) [Example 195, N-(3-{4-[5-(4-Chloro-benzyl)-7-propoxy-oxazolo[5,4-d]pyrimidin-2-yl]-2,6-dimethyl-phenoxy}-2-hydroxy-propyl)-benzamide] | 84%
CCCOc1nc(Cc2ccc(C(F)(F)F)cc2)nc2oc(-c3cccc(F)c3)nc12 [Example 12, 2-(3-Fluoro-phenyl)-7-propoxy-5-(4-trifluoromethyl-benzyl)-oxazolo[5,4-d]pyrimidine] | 65%
CCOc1nc(Cc2ccc(Cl)cc2)nc2oc(-c3cc(C)c(OCC(=O)NCC(=O)O)c(C)c3)nc12 [Example 240, (2-{4-[5-(4-chloro-benzyl)-7-ethoxy-oxazolo[5,4-d]pyrimidin-2-yl]-2,6-dimethyl-phenoxy}-acetylamino)-acetic acid] | 123%
CCCOc1nc(Cc2ccc(Cl)cc2)nc2oc(-c3cc(C)c(O)c(C)c3)nc12 [Example 17, 4-[5-(4-Chloro-benzyl)-7-propoxy-oxazolo[5,4-d]pyrimidin-2-yl]-2,6-dimethyl-phenol] | 74%
